Measured values from the NIST ThermoML archive (doi:10.1016/j.jct.2018.03.013).

Experiment: xn = mol fraction of the nth substance listed
Conditions: 100 kPa, Liquid; for speed of sound: Frequency=3 MHz, Linear variable-path acoustic interferometer; for mass density: Pycnometric method

C=C(C)C(=O)OCCCC [butyl 2-methyl-2-propenoate] + CC#N
Conditions	mass density [kg/m3]	speed of sound [m/s]
293.15 K, x2 = 0	895.19	1241.7
293.15 K, x2 = 0.0681	892.7	1244.4
293.15 K, x2 = 0.1359	889.93	1247.2
293.15 K, x2 = 0.1976	887.12	1249.7
293.15 K, x2 = 0.2728	883.27	1252.7
293.15 K, x2 = 0.3442	879.11	1255.5
293.15 K, x2 = 0.4143	874.45	1258.2
293.15 K, x2 = 0.4658	870.61	1260.3
293.15 K, x2 = 0.5243	865.72	1262.7
293.15 K, x2 = 0.5649	861.96	1264.5
293.15 K, x2 = 0.639	854.15	1268.1
293.15 K, x2 = 0.7112	845.09	1272.2
293.15 K, x2 = 0.7836	834.14	1277.3
293.15 K, x2 = 0.8558	820.72	1283.7
293.15 K, x2 = 0.928	803.86	1292.4
298.15 K, x2 = 0	890.48	1222.1
298.15 K, x2 = 0.0681	887.98	1224.8
298.15 K, x2 = 0.1359	885.2	1227.6
298.15 K, x2 = 0.1976	882.38	1230
298.15 K, x2 = 0.2728	878.51	1232.9
298.15 K, x2 = 0.3442	874.33	1235.5
298.15 K, x2 = 0.4143	869.65	1238.2
298.15 K, x2 = 0.4658	865.78	1240.2
298.15 K, x2 = 0.5243	860.86	1242.5
298.15 K, x2 = 0.5649	857.08	1244.2
298.15 K, x2 = 0.639	849.22	1247.7
298.15 K, x2 = 0.7112	840.11	1251.6
298.15 K, x2 = 0.7836	829.09	1256.4
298.15 K, x2 = 0.8558	815.6	1262.6
298.15 K, x2 = 0.928	798.66	1271
303.15 K, x2 = 0	885.78	1202.4
303.15 K, x2 = 0.0681	883.27	1205.3
303.15 K, x2 = 0.1359	880.47	1208.1
303.15 K, x2 = 0.1976	877.64	1210.5
303.15 K, x2 = 0.2728	873.75	1213.3
303.15 K, x2 = 0.3442	869.55	1216
303.15 K, x2 = 0.4143	864.84	1218.7
303.15 K, x2 = 0.4658	860.95	1220.7
303.15 K, x2 = 0.5243	856.01	1223.1
303.15 K, x2 = 0.5649	852.2	1224.8
303.15 K, x2 = 0.639	844.3	1228.3
303.15 K, x2 = 0.7112	835.14	1232.3
303.15 K, x2 = 0.7836	824.06	1237.2
303.15 K, x2 = 0.8558	810.49	1243.5
303.15 K, x2 = 0.928	793.46	1252
308.15 K, x2 = 0	881.07	1183
308.15 K, x2 = 0.0681	878.55	1185.9
308.15 K, x2 = 0.1359	875.74	1188.7
308.15 K, x2 = 0.1976	872.89	1191.2
308.15 K, x2 = 0.2728	868.98	1194.1
308.15 K, x2 = 0.3442	864.75	1196.8
308.15 K, x2 = 0.4143	860.01	1199.4
308.15 K, x2 = 0.4658	856.1	1201.4
308.15 K, x2 = 0.5243	851.13	1203.8
308.15 K, x2 = 0.5649	847.3	1205.6
308.15 K, x2 = 0.639	839.36	1209.1
308.15 K, x2 = 0.7112	830.15	1213.1
308.15 K, x2 = 0.7836	819.01	1218.1
308.15 K, x2 = 0.8558	805.37	1224.4
308.15 K, x2 = 0.928	788.25	1233
313.15 K, x2 = 0	876.35	1163.8
313.15 K, x2 = 0.0681	873.82	1166.7
313.15 K, x2 = 0.1359	871	1169.6
313.15 K, x2 = 0.1976	868.13	1172.1
313.15 K, x2 = 0.2728	864.2	1175
313.15 K, x2 = 0.3442	859.95	1177.7
313.15 K, x2 = 0.4143	855.18	1180.4
313.15 K, x2 = 0.4658	851.24	1182.4
313.15 K, x2 = 0.5243	846.24	1184.8
313.15 K, x2 = 0.5649	842.39	1186.6
313.15 K, x2 = 0.639	834.41	1190.2
313.15 K, x2 = 0.7112	825.14	1194.2
313.15 K, x2 = 0.7836	813.95	1199.3
313.15 K, x2 = 0.8558	800.24	1205.7
313.15 K, x2 = 0.928	783.04	1214.3
318.15 K, x2 = 0	871.64	1145.7
318.15 K, x2 = 0.0681	869.11	1148.6
318.15 K, x2 = 0.1359	866.27	1151.5
318.15 K, x2 = 0.1976	863.39	1154
318.15 K, x2 = 0.2728	859.43	1156.9
318.15 K, x2 = 0.3442	855.15	1159.6
318.15 K, x2 = 0.4143	850.35	1162.3
318.15 K, x2 = 0.4658	846.39	1164.3
318.15 K, x2 = 0.5243	841.36	1166.7
318.15 K, x2 = 0.5649	837.49	1168.4
318.15 K, x2 = 0.639	829.46	1171.9
318.15 K, x2 = 0.7112	820.14	1175.9
318.15 K, x2 = 0.7836	808.89	1180.9
318.15 K, x2 = 0.8558	795.11	1187.3
318.15 K, x2 = 0.928	777.83	1195.8
